Reference: article PMC9201908, “Expansion of the Strigolactone Profluorescent Probes Repertory: The Right Probe for the Right Application” (Frontiers in Plant Science, 2022)
Several values for one entry are separate records, joined by “and”; a condition that tells them apart may be missing. Identical values can stand only once. Counter-ions that a name gives are not always drawn. Like-named read-outs stand apart in the source and are kept apart here.

How the values were obtained:
pea = test: Bioactivity of D14 inhibitors in pea; conditions: in vivo
[1] = test system: rms1-10 pea mutant plants; test: Pea shoot-branching assay by direct application on the bud, rms1-10; format: in vivo, Pisum sativum; conditions: for Length of bud at node 3 /branch: direct application, rms1-10, 10 days after treatment; for Bioactivity on shoot branching inhibition (bud development): result in words
Protocol: (§1) Pea (Pisum sativum) branching mutant plants used in this study were described previously (Rameau et al., [1997]). The SL biosynthesis rms1-10 (M3T-884) and SL response rms3-4 (M2T-30) mutants were obtained from the dwarf cv. Térèse. Plants were grown in a greenhouse under long days as described by Braun et al. ([2012]).
(§2) The compounds to be tested were applied directly to the axillary bud with a micropipette as 10 μL of a solution containing 0.1% of acetone with 2% of polyethylene glycol 1,450, 50% of ethanol, and 0.4% of DMSO. The control 0 is the treatment with 0.1% of DMSO without compound. A total of 24 plants were sown per treatment in trays (2 repetitions of 12 plants). The treatment was done 8 days after sowing, on the axillary bud at node 3. The branches at nodes 1–2 were removed to encourage the outgrowth of axillary buds at nodes above. Nodes were numbered acropetally from the first scale leaf as node 1 and cotyledonary node as node 0. Bud growth at node 3 was measured 10 days after treatment. Plants with damaged main shoot apex or showing a dead white treated bud were discarded from the analysis. The SL-deficient rms1-10 pea mutant was used for all experiments and WT Térèse as control. SL-perceived rms3-4 pea mutant was used to test that when bioactive, the analog acts via RMS3, and it was also used to check the putative toxicity of probes.

rms3-4 pea mutant plants = test: Pea shoot-branching assay by direct application on the bud, rms3-4; format: in vivo, Pisum sativum; conditions: 1,000 nM, rms3-4, 10 days after treatment
Protocol: as §1, §2

RMS3 protein [2] = biological target: T1, RMS3 protein (Pisum sativum, UniProt A0A109QYD3); test: DSF binding assay on RMS3; conditions: 10 µM RMS3, probe 0-400 µM
T1 construct: GST; made in house
T1 sequence (A0A109QYD3 1-267): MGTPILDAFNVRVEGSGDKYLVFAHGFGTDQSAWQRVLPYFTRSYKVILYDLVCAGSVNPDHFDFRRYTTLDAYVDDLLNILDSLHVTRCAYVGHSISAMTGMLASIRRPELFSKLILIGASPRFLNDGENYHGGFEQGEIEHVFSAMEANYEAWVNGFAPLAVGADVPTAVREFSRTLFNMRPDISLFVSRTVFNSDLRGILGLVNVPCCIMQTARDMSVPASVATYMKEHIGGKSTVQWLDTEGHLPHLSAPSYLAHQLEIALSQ
Text: To search for a destabilization effect, which characterizes bioactive SL analogs with SL receptors, we performed DSF binding assay with our novel probes on RMS3 protein.
DSF assay with SL profluorescent probes. The melting temperature

RMS3 protein [3] = biological target: T1, RMS3 protein; test: Enzymatic assay with profluorescent probes, RMS3; format: biochemical; conditions: probe 10 μM, RMS3 400 nM, 25°C, result in words
[4] = test system: Arabidopsis SL-deficient mutant max3-11; test: Hydroponic assay on Arabidopsis, rosette branches; format: in vivo, Arabidopsis thaliana; conditions: max3-11, hydroponic, 0.5 and 3 μM
Protocol: The hydroponic assay was adapted from the study by Cornet et al. ([2021]). Seeds were surface-sterilized for 8 min in a solution of ethanol (95%) and hypochlorite solution (10%; Bayrol, Mundolsheim, France) and were rinsed two times with ethanol (100%). Each seed was sown on top of a cut 0.5 ml Eppendorf tube filled with agar medium containing 0.65% of agar and 10% of nutritive solution of 5 mM NO3. Tubes were soaked in water and stored in the dark at 4°C for 2 days. Twelve plants per pipette tip box (13 × 9 × 7 cm) were grown and supplied with nutrient solution as in the study by Boyer et al. ([2014]) at a concentration of 5 ml/L (750 ml of solution per box). Every week, the nutrient solution was renewed and every 10 days one time, a fresh batch of treatment was added to the solution. The first treatment occurred at day 27 after sowing when plants started to bolt. The number of rosette branches was counted at day 42.

Ppccd8 mutant plants [5] = test: Physcomitrium patens bioassay, number of filaments in the dark; format: in vivo; conditions: 1 μM; for Activity on filament number, one bioassay replication: Supplementary Figure 3
Protocol: Assays on Physcomitrium patens were performed on plants grown in 24-well plates, starting from very small pieces of moss tissues as described by Guillory and Bonhomme ([2021]). As for pea rms1, the Ppccd8 SL synthesis mutant was used for assays, since the effect of the compounds was better seen in this mutant vs. wild type (WT; Lopez-Obando et al., [2021]). For each treatment, 24 plants were grown in PpNO3 medium [minimal medium described by Ashton et al., [1979]], dispatched in three different plates. Plants were grown for 2 weeks under control conditions, then treated with fluorophores or probes (all compounds used at 1 μM), before being placed vertically in the dark for 10 days. A single picture of each well was taken under an Axio Zoom microscope (Zeiss) with a dedicated program. Filaments were counted using ImageJ software (http://imagej.nih.gov/ij/) as described by Guillory and Bonhomme ([2021]). Twenty-four plants were tested in each treatment.

[6] = test system: rms1-10 pea mutant plants; test: Pea shoot-branching assay by vascular supply, rms1-10; format: in vivo, Pisum sativum; conditions: rms1-10, 3,000 nM
Protocol: as §1
The compounds to be tested were applied by vascular supply (Muñoz et al., [2021]). The control was the treatment with 0.1% of DMSO in water. A total of 12 plants were sown per treatment in trays and were treated with probes under node 3 bud generally 10 days after sowing. Compounds in DMSO solution were diluted with water to 3,000 nM for a treatment with 0.1% (v/v) DMSO. The branches at nodes 1 and 2 were removed to encourage the outgrowth of axillary buds at the nodes above. Nodes were numbered acropetally from the first scale leaf as node 1 and cotyledonary node as node 0. Bud growth at nodes 3 and 4 was measured with digital calipers 8–10 days after treatment. Plants with damaged main shoot apex or with a dead white treated-bud were discarded from the analysis. The SL-deficient rms1-10 pea mutant was used for all experiments.

[7] = test system: rms1-10 pea mutant plants; conditions: cited from earlier work; for Length of bud at node 3 /branch: direct application, rms1-10, tested previously, ref De saint Germain et al 2016
Ppccd8 mutant plants [8] = conditions: WT and Ppccd8; ref Hoffmann et al., 2014; Lopez-Obando et al., 2021; cited from earlier work
ShD14 = test system: ShD14; set-up: method as in Xu et al., 2018; conditions: ref Xu et al., 2018; cited from earlier work

Row | Compound | Length of bud at node 3 /branch ([1]; 1,000 nM, mean per replicate) | Length of bud at node 3 /branch ([1]; 10 nM, mean per replicate) | Length of bud at node 3 /branch ([1]; 100 nM, mean per replicate) | Length of bud at node 3 /branch ([1]; 10,000 nM, mean per replicate) [mm] | Bioactivity on shoot branching inhibition (bud development) ([1]; rms1-10, direct application) | also measured
1 | Cc1c(Cl)cccc1Nc1ccccc1C(=O)O [TFA, tolfenamic acid] |  |  |  |  |  | Bioactivity in pea (pea): no bioactivity
2 | 7-Hydroxycoumarin [reference compound] | 41.46 mm |  |  |  |  | 
3 | COc1cc2ccc(=O)oc2cc1OC1OC(=O)C(C)=C1C (racemic) [(±)-GC380] | 2.33 mm and 3.47 mm and 2.08 mm | 6.65 mm | 8.99 mm and 11.66 mm and 5.90 mm | 2.15 | bioactive for the three tested concentrations | Length of bud at node 3 /branch (rms3-4 pea mutant plants): 23.62
4 | Cc1cc(=O)oc2c(F)c(O)c(F)cc12 [DiFMU, 6,8-difluoro-7-hydroxy-4-methyl-2H-chromen-2-one, reference compound] | 14.76 mm |  |  |  |  | 
5 | COc1cc2ccc(=O)oc2cc1OC1C=C(C)C(=O)O1 (racemic) [(±)-GC379] | 3.38 mm and 3.19 mm and 3.65 mm and 3.04 mm | 3.54 mm | 2.81 mm and 5.02 mm and 3.98 mm and 14.32 mm | 2.17 | bioactive for the three tested concentrations | Length of bud at node 3 /branch (rms3-4 pea mutant plants): 26.30; Destabilization of RMS3 (DSF) (RMS3 protein [2]): able to destabilize RMS3
6 | CC1=C(C)C(Oc2ccc3ccc(=O)oc3c2)OC1=O (racemic) [(±)-GC155] | 1.98 mm and 1.45 mm and 1.92 mm and 1.96 mm and 2.38 mm and 2.32 mm | 5.97 mm and 16.85 mm and 8.43 mm | 3.68 mm and 4.11 mm and 2.71 mm and 5.98 mm and 1.83 mm | 2.06 | among the most bioactive molecules | Destabilization of RMS3 (DSF) (RMS3 protein [2]): able to destabilize RMS3; Cleavage kinetics by RMS3 (RMS3 protein [3]): two-phase kinetic
7 | CC1=CC(Oc2ccc3nc4ccc(=O)cc-4oc3c2)OC1=O (racemic) [(±)-GC93, 7-[(4-Methyl-5-Oxo-2,5-Dihydrofuran-2-yl)Oxy]-3H-Phenoxazin-3-One] |  | 17.73 mm |  | 3.89 | inhibitory effect with statistical significance only at 10 μM | Bioactivity on number of rosette branches [4]: not bioactive; Activity on filament number (Ppccd8 mutant plants [5]): strongest activity; Bioactivity by vascular supply compared to the coumarin derivatives series [6]: lower bioactivity
8 | CC(=O)Oc1ccc2ccc(=O)oc2c1 [CoumarinAc, 7-Acetoxycoumarin] | 25.33 mm | 21.81 mm | 22.67 mm |  | no effect | Cleavage kinetics by RMS3 (RMS3 protein [3]): slower velocity than DiFMUAc
9 | CC1=CC(Oc2ccc3ccc(=O)oc3c2)OC1=O (racemic) [(±)-GC116] | 1.67 mm and 3.13 mm and 1.60 mm and 2.22 mm and 1.97 mm and 2.21 mm | 2.47 mm and 2.26 mm and 5.20 mm and 4.34 mm and 3.85 mm | 2.66 mm and 2.29 mm and 2.46 mm and 1.96 mm and 1.72 mm | 2.43 | inhibition of bud development | Bioactivity on number of rosette branches [4]: bioactive at 3 μM; Length of bud at node 3 /branch ([1]; 0.1 nM): 11.47 mm; Length of bud at node 3 /branch ([1]; 1 nM): 6.38 mm; Inhibition of bud development among probes with one methyl group on the D-ring ([1]; rms1-10, direct application, 10 nM): strongest inhibition of bud development; Destabilization of RMS3 (DSF) (RMS3 protein [2]): able to destabilize RMS3; Activity on filament number, one bioassay replication (Ppccd8 mutant plants [5]): no significant bioactivity
10 | O=C(N1CCc2ccccc21)n1ccnn1 [KK094] |  |  |  |  |  | Bioactivity in pea (pea): no bioactivity
11 | Cc1cc(=O)oc2c(F)c(OC3C=CC(=O)O3)c(F)cc12 (racemic) [(±)-GC486] | 23.14 mm | 24.70 mm | 22.10 mm |  | no biological activity | Activity on filament number, one bioassay replication (Ppccd8 mutant plants [5]): slight opposite effect; Length of bud at node 3 /branch ([7]; 1,000 nM): 9.26 mm; Length of bud at node 3 /branch ([7]; 5,000 nM): 17.41 mm; Cleavage kinetics by RMS3 (RMS3 protein [3]): Michaelian kinetics
12 | CCOC(=O)c1ccccc1-c1c2ccc(=O)cc-2oc2cc(OC3C=CC(=O)O3)ccc12 (racemic) [(±)-dYLG, reference compound] |  |  |  |  |  | Biological activity on branching inhibition ([7]; ref Yao et al., 2021): no biological activity
13 | CC1=C(C)C(Oc2ccc3nc4ccc(=O)cc-4oc3c2)OC1=O (racemic) [(±)-GC247, 7-[(3,4-Dimethyl-5-Oxo-2,5-Dihydrofuran-2-yl)Oxy]-3H-Phenoxazin-3-One] |  | 12.39 mm |  | 6.54 | inhibitory effect with statistical significance only at 10 μM | Cleavage kinetics by RMS3 (RMS3 protein [3]): two-phase kinetic
14 | O=c1ccc2nc3ccc(O)cc3oc-2c1 [Resorufin, reference compound] | 14.90 mm | 12.53 mm | 16.50 mm |  |  | 
15 | CC1=CC(OC=C2C(=O)OC3c4ccccc4CC23)OC1=O (single isomer, unassigned; (+)) [(+)-GR24] |  |  |  |  |  | Effect on filament number (Ppccd8 mutant plants [8]): decrease in filament number
16 | CC1=C[C@H](O/C=C2/C(=O)O[C@@H]3c4ccccc4C[C@H]23)OC1=O (racemic) [(±)-GR24, reference compound] |  |  |  |  |  | Bioactivity on number of rosette branches [4]: bioactive at both concentrations; Activity on filament number (Ppccd8 mutant plants [5]): confirmed the previous activity; Cleavage by ShD14 (ShD14): could cleave; Effect on filament number (Ppccd8 mutant plants [8]): decrease in filament number
